Measurements published in patent publication US4330529A, “Antibacterial composition” (Fujisawa Pharmaceutical Co., Ltd., priority 1979, dated 1982).

Legend:
Assay type in all cases: cell-based
[1] = test system: Enterobacter cloacae 1401-4; assay: MIC and FIC, Nutrient agar (Tests 2, 3); details: E. cloacae 1401-4
[2] = test system: Alcaligenes faecalis 1311-1; assay: MIC and FIC, Nutrient agar (Test 2); details: 13111, A. faecalis 1311-1, 20 h
Description: (§1) After the incubation was carried out at 37° C. for 20 hours, MIC values were determined.
(§2) FIC values and FIC Index were calculated in substantially the same manner as described in Test 1.

[3] = test system: Pseudomonas aeruginosa No.5; assay: MIC and FIC, Nutrient agar, multiple inoculator (Tests 4, 5); details: Pseudomonas aeruginosa; P. aeruginosa No.5; 10^8 cells/ml, 20 h; read-out: MIC
Description: as §1

[4] = test system: Pseudomonas aeruginosa No.11; assay: MIC and FIC, Nutrient agar, multiple inoculator (Test 5); details: Pseudomonas aeruginosa; P. aeruginosa No.11; 10^8 cells/ml, 20 h; read-out: MIC
Description: as §1, §2

[5] = test system: Pseudomonas aeruginosa No.13; assay: as above; details: Pseudomonas aeruginosa; P. aeruginosa No.13; 10^8 cells/ml, 20 h; read-out: MIC
Description: as §1, §2

Proteus vulgaris 5 = assay: MIC and FIC, Nutrient agar (Test 6); details: Proteus vulgaris; P. vulgaris 5; 18 h; read-out: MIC
Description: as §2

Proteus vulgaris 7 = assay: MIC and FIC, Nutrient agar (Tests 7, 9); details: P. vulgaris 7
Serratia marcescens 27 = assay: MIC and FIC, Nutrient agar (Test 7); details: S. marcescens 27, 18 h
Description: as §2

Proteus mirabilis 5 = assay: MIC and FIC, Nutrient agar (Test 7); details: P. mirabilis 5, 18 h
Description: as §2

Serratia marcescens 4 = assay: MIC and FIC, Nutrient agar (Test 9); details: S. marcescens 4, 18 h
Description: as §2

Proteus vulgaris 22 = assay: MIC and FIC, Nutrient agar (Test 9); details: P. vulgaris 22, 18 h
Description: as §2

O=CN(O)CCCP(=O)(O)O [A (Table 2)]
MIC ([1]; 20 h, listed as A (Table 3)): 3.16 µg/mL
MIC ([1]; 20 h, listed as A (Table 4)): 3.13 µg/mL
MIC ([1]; Enterobacter cloacae, 14014, 20 h): 3.13 µg/mL
MIC [2]: ≥ 400 µg/mL
MIC [3]: 800 µg/mL
MIC [4]: > 800 µg/mL
MIC [5]: 800 µg/mL
MIC (Proteus vulgaris 5): 25 µg/mL
MIC (Proteus vulgaris 7; 18 h, listed as A (Table 15)): 50 µg/mL
MIC (Proteus vulgaris 7; Proteus vulgaris, 7, 18 h): 25 µg/mL
MIC (Serratia marcescens 27): 400 µg/mL
MIC (Proteus mirabilis 5): 25 µg/mL
MIC (Serratia marcescens 4): 50 µg/mL
MIC (Proteus vulgaris 22): 6.25 µg/mL
